Source: paper PMC9019904, “AD Informer Set: Chemical tools to facilitate Alzheimer's disease drug discovery” (Alzheimer's & Dementia : Translational Research & Clinical …, 2022)
Values after ≈ are worked out from the molar mass of the structure shown. Structures can show the parent of a compound that is named as a salt.

Tests used:
[1] = Kinetic solubility in aqueous buffer pH 7.4 by total chemiluminescent nitrogen determination (Analiza); details: aqueous buffer, pH 7.4, aqueous buffer, kinetic from dmso stock
[2] = tested on: BV2 (mouse microglia) cell line; experiment: pHrodo-myelin phagocytosis/cell viability high content imaging assay: viability (cell count, nuclear area, nuclear intensity)
Summary of the method: (§1)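 BV2 mouse and HMC3 human microglia were treated with compounds at 10 μM for 48 h, with pHrodo-myelin present for the last 20 h. Viability was imaged as total cell count per well and mean nuclear intensity per cell. Values are means of duplicates, normalized to untreated wells as % control.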

[3] = tested on: HMC3 (human microglia) cell line; experiment: pHrodo-myelin phagocytosis/cell viability high content imaging assay: phagocytosis signal; format: cell-based
Summary of the method: (§2)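 Mouse BV2 and human HMC3 microglia given pHrodo-myelin; phagocytosis and cell viability imaged together by high content imaging about 22 hours after myelin addition. Three measurements extracted, including intensity increase and decrease marking early and later apoptosis.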

[4] = tested on: BV2 (mouse microglia) cell line; experiment: as above; format: cell-based
Summary of the method: as §2

[5] = tested on: HMC3 (human microglia) cell line; experiment: pHrodo-myelin phagocytosis/cell viability high content imaging assay: viability (cell count, nuclear area, nuclear intensity)
Summary of the method: as §1

| Structure (SMILES) | solubility kinetic [1] | Inhibition of human microglial phagocytosis at 10 μM (<70% control) ([3]; HMC3, 10 μM) | Inhibition of human microglial phagocytosis at 10 μM (<70% control) ([3]; 10 μM, HMC3) | also measured |
| --- | --- | --- | --- | --- |
| O=C(NC1CCNCC1)c1n[nH]cc1NC(=O)c1c(Cl)cccc1Cl [AT-7519] | 146 µM (≈ 55.8 µg/mL) | – | – | Mouse microglial cytotoxicity at 10 μM (<70% control) ([2]; BV2, 10 μM): Y (The compound was found to be cytotoxic (cell count threshold: <70% control) when murine immortalized microglial cells were dosed at 10 μM (Y: yes)); Stimulation of human microglial phagocytosis at 10 μM (>150% control) ([3]; HMC3, 10 μM): Y (The compound was found to stimulate phagocytosis (response threshold: >150% control) when human immortalized microglial cells were dosed at 10 μM (Y: yes)); Inhibition of mouse microglial phagocytosis at 10 μM (<70% control) ([4]; BV2, 10 μM): Y (The compound was found to inhibit phagocytosis (response threshold: <70% control) when murine immortalized microglial cells were dosed at 10 μM (Y: yes)) |
| O=C(O)CCCc1nc(-c2ccc(Cl)c(Cl)c2)c(-c2ccccc2)o1 [SWE101] | 155 µM (≈ 58.4 µg/mL) | Y (The compound was found to inhibit phagocytosis (response threshold: <70% control) when human immortalized microglial cells were dosed at 10 μM (Y: yes)) | – | Stimulation of mouse microglial phagocytosis at 10 μM (>150% control) ([4]; BV2, 10 μM): Y (The compound was found to stimulate phagocytosis (response threshold: >150% control) when murine immortalized microglial cells were dosed at 10 μM (Y: yes)) |
| CO[C@H]1C[C@@H]2CC[C@@H](C)[C@@](O)(O2)C(=O)C(=O)N2CCCC[C@H]2C(=O)O[C@H]([C@H](C)C[C@@H]2CC[C@@H](O)[C@H](OC)C2)CC(=O)[C@H](C)/C=C(\C)[C@@H](O)[C@@H](OC)C(=O)[C@H](C)C[C@H](C)/C=C/C=C/C=C/1C [Sirolimus] | 19.8 µM (≈ 18.1 µg/mL) | – | Y (The compound was found to inhibit phagocytosis (response threshold: <70% control) when human immortalized microglial cells were dosed at 10 μM (Y: yes)) | Mouse microglial cytotoxicity at 10 μM (<70% control) ([2]; 10 μM, BV2): Y (The compound was found to be cytotoxic (cell count threshold: <70% control) when murine immortalized microglial cells were dosed at 10 μM (Y: yes)); Stimulation of mouse microglial phagocytosis at 10 μM (>150% control) ([4]; 10 μM, BV2): Y (The compound was found to stimulate phagocytosis (response threshold: >150% control) when murine immortalized microglial cells were dosed at 10 μM (Y: yes)) |
| C[C@H]1Oc2cc(cnc2N)-c2c(nn(C)c2C#N)CN(C)C(=O)c2ccc(F)cc21 [Lorlatinib] | 172 µM (≈ 69.9 µg/mL) | Y (The compound was found to inhibit phagocytosis (response threshold: <70% control) when human immortalized microglial cells were dosed at 10 μM (Y: yes)) | – | Stimulation of mouse microglial phagocytosis at 10 μM (>150% control) ([4]; BV2, 10 μM): Y (The compound was found to stimulate phagocytosis (response threshold: >150% control) when murine immortalized microglial cells were dosed at 10 μM (Y: yes)) |
| O=S(=O)(c1ccccc1)N(CC(F)(F)F)c1ccc(C(O)(C(F)(F)F)C(F)(F)F)cc1 [T 0901317] | 40 µM (≈ 19.3 µg/mL) | – | Y (The compound was found to inhibit phagocytosis (response threshold: <70% control) when human immortalized microglial cells were dosed at 10 μM (Y: yes)) | Stimulation of mouse microglial phagocytosis at 10 μM (>150% control) ([4]; 10 μM, BV2): Y (The compound was found to stimulate phagocytosis (response threshold: >150% control) when murine immortalized microglial cells were dosed at 10 μM (Y: yes)) |
| Oc1cc(CNC(=S)/C=C/c2cc(O)c(O)c(Br)c2)cc(O)c1O [NT157] | 79.7 µM (≈ 32.9 µg/mL) | – | – | Human microglial cytotoxicity at 10 μM (<70% control) ([5]; 10 μM, HMC3): Y (The compound was found to be cytotoxic (cell count threshold: <70% control) when human immortalized microglial cells were dosed at 10 μM (Y: yes)); Mouse microglial cytotoxicity at 10 μM (<70% control) ([2]; 10 μM, BV2): Y (The compound was found to be cytotoxic (cell count threshold: <70% control) when murine immortalized microglial cells were dosed at 10 μM (Y: yes)); Stimulation of mouse microglial phagocytosis at 10 μM (>150% control) ([4]; 10 μM, BV2): Y (The compound was found to stimulate phagocytosis (response threshold: >150% control) when murine immortalized microglial cells were dosed at 10 μM (Y: yes)) |
| CC(Nc1nc(N2CCCC2)nc2ccccc12)c1ccccc1 (stereo not shown) [Importazole] | 42.1 µM (≈ 13.4 µg/mL) | – | Y (The compound was found to inhibit phagocytosis (response threshold: <70% control) when human immortalized microglial cells were dosed at 10 μM (Y: yes)) | Human microglial cytotoxicity at 10 μM (<70% control) ([5]; 10 μM, HMC3): Y (The compound was found to be cytotoxic (cell count threshold: <70% control) when human immortalized microglial cells were dosed at 10 μM (Y: yes)); Mouse microglial cytotoxicity at 10 μM (<70% control) ([2]; 10 μM, BV2): Y (The compound was found to be cytotoxic (cell count threshold: <70% control) when murine immortalized microglial cells were dosed at 10 μM (Y: yes)) |
| CCn1cc(C(=O)O)c(=O)c2c(N)c(F)c(NC3CCCCC3)cc21 [AS1842856] | 6.5 µM (≈ 2.26 µg/mL) | – | Y (The compound was found to inhibit phagocytosis (response threshold: <70% control) when human immortalized microglial cells were dosed at 10 μM (Y: yes)) | Human microglial cytotoxicity at 10 μM (<70% control) ([5]; 10 μM, HMC3): Y (The compound was found to be cytotoxic (cell count threshold: <70% control) when human immortalized microglial cells were dosed at 10 μM (Y: yes)) |
| CNc1nc(C)nc(N[C@H]2CCC[C@@H](C(=O)NCc3ccc(C#N)cc3C(F)(F)F)C2)n1 [GSK2256294A] | 148 µM (≈ 66 µg/mL) | Y (The compound was found to inhibit phagocytosis (response threshold: <70% control) when human immortalized microglial cells were dosed at 10 μM (Y: yes)) | – | – |
| CCN(CC)c1ccc(/C=N/NC(=O)c2ccc(O)cc2)cc1 [DY131] | 4.5 µM (≈ 1.4 µg/mL) | Y (The compound was found to inhibit phagocytosis (response threshold: <70% control) when human immortalized microglial cells were dosed at 10 μM (Y: yes)) | – | Mouse microglial cytotoxicity at 10 μM (<70% control) ([2]; BV2, 10 μM): Y (The compound was found to be cytotoxic (cell count threshold: <70% control) when murine immortalized microglial cells were dosed at 10 μM (Y: yes)) |
| O=C(CCl)c1ccccc1Nc1cccc(C(F)(F)F)c1 [TED-347] | 40.8 µM (≈ 12.8 µg/mL) | Y (The compound was found to inhibit phagocytosis (response threshold: <70% control) when human immortalized microglial cells were dosed at 10 μM (Y: yes)) | – | Stimulation of mouse microglial phagocytosis at 10 μM (>150% control) ([4]; BV2, 10 μM): Y (The compound was found to stimulate phagocytosis (response threshold: >150% control) when murine immortalized microglial cells were dosed at 10 μM (Y: yes)) |
| c1ccc(-c2nn3c(c2-c2ccnc4cc(OCCN5CCOCC5)ccc24)CCC3)nc1 [LY2109761] | 114 µM (≈ 50.6 µg/mL) | Y (The compound was found to inhibit phagocytosis (response threshold: <70% control) when human immortalized microglial cells were dosed at 10 μM (Y: yes)) | – | – |
| C[C@@H](Oc1cc(-c2cnn(C3CCNCC3)c2)cnc1N)c1c(Cl)ccc(F)c1Cl [Crizotinib] | 160 µM (≈ 72.1 µg/mL) | Y (The compound was found to inhibit phagocytosis (response threshold: <70% control) when human immortalized microglial cells were dosed at 10 μM (Y: yes)) | – | Inhibition of mouse microglial phagocytosis at 10 μM (<70% control) ([4]; BV2, 10 μM): Y (The compound was found to inhibit phagocytosis (response threshold: <70% control) when murine immortalized microglial cells were dosed at 10 μM (Y: yes)) |
| OC(c1cc(C23CC4CC(CC(C4)C2)C3)nc2c(Cl)cc(Cl)cc12)C1CCCCN1 (stereo not shown) [NSC305787] | < 1.1 µM | Y (The compound was found to inhibit phagocytosis (response threshold: <70% control) when human immortalized microglial cells were dosed at 10 μM (Y: yes)) | – | Mouse microglial cytotoxicity at 10 μM (<70% control) ([2]; BV2, 10 μM): Y (The compound was found to be cytotoxic (cell count threshold: <70% control) when murine immortalized microglial cells were dosed at 10 μM (Y: yes)) |
| CC(C)(C)c1cnc(CSc2cnc(NC(=O)C3CCNCC3)s2)o1 [SNS-032] | 138 µM (≈ 52.3 µg/mL) | – | – | Human microglial cytotoxicity at 10 μM (<70% control) ([5]; HMC3, 10 μM): Y (The compound was found to be cytotoxic (cell count threshold: <70% control) when human immortalized microglial cells were dosed at 10 μM (Y: yes)); Mouse microglial cytotoxicity at 10 μM (<70% control) ([2]; BV2, 10 μM): Y (The compound was found to be cytotoxic (cell count threshold: <70% control) when murine immortalized microglial cells were dosed at 10 μM (Y: yes)); Stimulation of human microglial phagocytosis at 10 μM (>150% control) ([3]; HMC3, 10 μM): Y (The compound was found to stimulate phagocytosis (response threshold: >150% control) when human immortalized microglial cells were dosed at 10 μM (Y: yes)) |
| CCCC[C@@H](C=O)NC(=O)[C@H](CC(C)C)NC(=O)OCc1ccccc1 [Calpeptin] | 170 µM (≈ 61.4 µg/mL) | Y (The compound was found to inhibit phagocytosis (response threshold: <70% control) when human immortalized microglial cells were dosed at 10 μM (Y: yes)) | – | Stimulation of mouse microglial phagocytosis at 10 μM (>150% control) ([4]; BV2, 10 μM): Y (The compound was found to stimulate phagocytosis (response threshold: >150% control) when murine immortalized microglial cells were dosed at 10 μM (Y: yes)) |
| COc1ccc(CCCN2CCC(COC(c3ccccc3)c3ccccc3)CC2)cc1 [UK-78282 HCl] | 796 µM | – | Y (The compound was found to inhibit phagocytosis (response threshold: <70% control) when human immortalized microglial cells were dosed at 10 μM (Y: yes)) | Stimulation of mouse microglial phagocytosis at 10 μM (>150% control) ([4]; 10 μM, BV2): Y (The compound was found to stimulate phagocytosis (response threshold: >150% control) when murine immortalized microglial cells were dosed at 10 μM (Y: yes)) |
| C[C@H](NC(=O)c1sccc1OCc1ccc(Cl)cc1)c1ccccc1 [AS1949490] | < 2.1 µM | – | Y (The compound was found to inhibit phagocytosis (response threshold: <70% control) when human immortalized microglial cells were dosed at 10 μM (Y: yes)) | – |
| CN(C)CCCn1c(N)c(-c2nc3ccccc3[nH]2)c2nc3ccccc3nc21 [INI-43] | 5.9 µM (≈ 2.27 µg/mL) | – | Y (The compound was found to inhibit phagocytosis (response threshold: <70% control) when human immortalized microglial cells were dosed at 10 μM (Y: yes)) | – |
